Assays:
hairy beggarticks = assay: Test E preemergence; assay type: in vivo, Bidens pilosa; details: for Beggarticks plant response rating: scale 0 to 100 (0 no effect, 100 complete control)
Outline: (§1)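 Compound in a non-phytotoxic solvent mixture with surfactant was applied preemergence to seeds in silt loam soil, or postemergence to plants 2 to 18 cm tall grown in peat-based potting medium. Plants were kept in a greenhouse for 14 to 21 days, then rated visually against untreated controls on a 0 (no effect) to 100 (complete control) scale.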

giant foxtail = assay: Test E preemergence; assay type: in vivo, Setaria faberii; details: for Foxtail, Giant plant response rating: scale 0 to 100 (0 no effect, 100 complete control)
Outline: as §1

blackgrass = assay: Test D postemergence; assay type: in vivo, Alopecurus myosuroides; details: Alopecurus myosuroides, post-emergence, Postemergence, scale 0 to 100 (0 no effect, 100 complete control), read-out: Plant response rating, Blackgrass; for pest or weed control at 62 g/ha: 62 g ai/ha; for pest or weed control at 16 g/ha: 16 g ai/ha; for pest or weed control at 31 g/ha: 31 g ai/ha; for pest or weed control at 125 g/ha: 125 g ai/ha; for pest or weed control at 250 g/ha: 250 g ai/ha
Description: Seeds of plant species selected from bluegrass (annual bluegrass, Poa annua), blackgrass (Alopecurus myosuroides), canarygrass (littleseed canarygrass, Phalaris minor), chickweed (common chickweed, Stellaria media), galium (catchweed bedstraw, Galium aparine), bromegrass, downy (downy bromegrass, Bromus tectorum), field poppy (Papaver rhoeas), field violet (Viola arvensis), green foxtail (Setaria viridis), deadnettle (henbit deadnettle, Lamium amplexicaule), Italian ryegrass (Lolium multiflorum), kochia (Kochia scoparia), lambsquarters (Chenopodium album), oilseed rape (Brassica napus), pigweed (Amaranthus retroflexus), chamomile (scentless chamomile, Matricaria inodora), Russian thistle (Salsola kali), speedwell (bird's-eye speedwell, Veronica persica), spring barley (Hordeum vulgare), spring wheat (Triticum aestivum), wild buckwheat (Polygonum convolvulus), wild mustard (Sinapis arvensis), wild oat (Avena fatua), wild radish (Raphanus raphanistrum), windgrass (Apera spica-venti), winter barley (Hordeum vulgare), and winter wheat (Triticum aestivum) were planted into a silt loam soil and treated preemergence with test chemicals formulated in a non-phytotoxic solvent mixture which included a surfactant.
At the same time, these species were planted in pots containing Redi-Earth® planting medium (Scotts Company, 14111 Scottslawn Road, Marysville, Ohio 43041) comprising spaghnum peat moss, vermiculite, wetting agent and starter nutrients and treated with postemergence applications of the test chemicals formulated in the same manner. Plants ranged in height from 2 to 18 cm (1- to 4-leaf stage). Treated plants and controls were maintained in a controlled growth environment for 7 to 21 days after which time all species were compared to controls and visually evaluated. Plant response ratings, summarized in Table D, are based on a scale of 0 to 100 where 0 is no effect and 100 is complete control. A dash (-) response means no test result.

field bindweed = assay: Test E preemergence; assay type: in vivo, Convolvulus arvensis; details: for Field Bindweed plant response rating: scale 0 to 100 (0 no effect, 100 complete control)
Outline: as §1

waterhemp = assay: Test E preemergence; assay type: in vivo, Amaranthus rudis; details: for Waterhemp plant response rating: scale 0 to 100 (0 no effect, 100 complete control)
Outline: as §1

nightshade = assay: Test E preemergence; assay type: in vivo, Solanum ptycanthum; details: for Nightshade plant response rating: scale 0 to 100 (0 no effect, 100 complete control)
Outline: as §1

surinam grass = assay: Test E preemergence; assay type: in vivo, Brachiaria decumbens; details: for Surinam Grass plant response rating: scale 0 to 100 (0 no effect, 100 complete control)
Outline: as §1

kochia [1] = assay: Test A preemergence; assay type: in vivo, Kochia scoparia; details: 0 to 100 scale where 0 is no effect and 100 is complete control
Outline: (§2)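 Compounds in non-phytotoxic solvent with surfactant applied as soil spray preemergence, or postemergence to plants 2-10 cm at one- to two-leaf stage, in loam/sand. After approximately 10 days in greenhouse, injury rated visually versus untreated controls, 0 (no effect) to 100 (complete control).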

Italian ryegrass = assay: Test A postemergence; assay type: in vivo, Lolium multiflorum; details: 0 to 100 scale where 0 is no effect and 100 is complete control
Outline: as §2

kochia [2] = assay: Test A postemergence; assay type: in vivo, Kochia scoparia; details: 0 to 100 scale where 0 is no effect and 100 is complete control
Outline: as §2

[3] = Preemergence, 62 g ai/ha, scale 0 to 100, 0 no effect, 100 complete control
[4] = preemergence, 125 g ai/ha, scale 0 to 100, 0 no effect, 100 complete control
[5] = 8 g ai/ha, scale 0 to 100, 0 is no effect, 100 is complete control
[6] = 125 g ai/ha, scale 0 to 100, 0 no effect, 100 complete control
[7] = 250 g ai/ha, scale 0 to 100, 0 no effect, 100 complete control

Row | Compound | Beggarticks plant response rating (hairy beggarticks; 16 g ai/ha, preemergence) | Beggarticks plant response rating (hairy beggarticks; 31 g ai/ha, preemergence) | Plant response rating, Beggarticks (hairy beggarticks; [4]) | Foxtail, Giant plant response rating (giant foxtail; 16 g ai/ha) | Foxtail, Giant plant response rating (giant foxtail; 31 g ai/ha) | Foxtail, Giant plant response rating (giant foxtail; 62 g ai/ha) | Plant response rating, Foxtail, Giant (giant foxtail; [6]) | pest or weed control at 62 g/ha (blackgrass) | pest or weed control at 16 g/ha (blackgrass) | pest or weed control at 31 g/ha (blackgrass) | pest or weed control at 125 g/ha (blackgrass) | Field Bindweed plant response rating (field bindweed; 16 g ai/ha) | Field Bindweed plant response rating (field bindweed; 31 g ai/ha) | Field Bindweed plant response rating (field bindweed; 62 g ai/ha) | Plant response rating, Field Bindweed (field bindweed; [6]) | Waterhemp plant response rating (waterhemp; 16 g ai/ha) | Waterhemp plant response rating (waterhemp; 31 g ai/ha) | Waterhemp plant response rating (waterhemp; 62 g ai/ha) | Plant response rating, Waterhemp (waterhemp; [6]) | Nightshade plant response rating (nightshade; 16 g ai/ha) | other results
1 | Clc1cnc(Oc2ccccc2-n2cc(Br)cn2)nc1 [Compound 7, 2-[2-(4-bromo-1H-pyrazol-1-yl)phenoxy]-5-chloropyrimidine] | 0 | 0 | 0 | 20 | 20 | 40 | 90 | 5% | 0% | 5% | 10% | 0 | 0 | 0 | 0 | 100 | 100 | 100 | 100 | 65 | Plant response rating, Beggarticks (hairy beggarticks; 8 g ai/ha, preemergence, scale 0 to 100, 0 is no effect, 100 is complete control): 0; Plant response rating, Beggarticks (hairy beggarticks; [3]): 0; Plant response rating, Foxtail, Giant (giant foxtail; [5]): 15; pest or weed control at 250 g/ha (blackgrass): 25%; Plant response rating, Field Bindweed (field bindweed; [5]): 0; Plant response rating, Waterhemp (waterhemp; [5]): 95; Plant response rating, Nightshade (nightshade; [5]): 0; Nightshade plant response rating (nightshade; 31 g ai/ha): 98; Nightshade plant response rating (nightshade; 62 g ai/ha): 98; Plant response rating, Nightshade (nightshade; [6]): 98; Plant response rating, Surinam Grass (surinam grass; [5]): 0; Surinam Grass plant response rating (surinam grass; 16 g ai/ha): 0; Surinam Grass plant response rating (surinam grass; 31 g ai/ha): 0; Surinam Grass plant response rating (surinam grass; 62 g ai/ha): 10; Plant response rating, Surinam Grass (surinam grass; [6]): 35
2 | FC(F)(F)COc1cnn(-c2ccccc2Oc2ncc(Cl)cn2)c1 [Compound 138, 5-chloro-2-[2-[4-(2,2,2-trifluoroethoxy)-1H-pyrazol-1-yl]phenoxy]pyrimidine] | 0 | 0 | 0 | 0 | 0 | 30 | 75 | 10% | 5% | 5% | 15% | 0 | 20 | 40 | 50 | 0 | 100 | 90 | 100 | 0 | Beggarticks plant response rating (hairy beggarticks; 62 g ai/ha, preemergence): 0; Plant response rating, Kochia (kochia [1]; 125 g ai/ha): 90; Kochia plant response rating (kochia [1]; 500 g ai/ha): 100; Ryegrass, Italian plant response rating (Italian ryegrass; 125 g ai/ha): 40; Plant response rating, Ryegrass, Italian (Italian ryegrass; 500 g ai/ha): 90; Kochia plant response rating (kochia [2]; 125 g ai/ha): 90; Plant response rating, Kochia (kochia [2]; 500 g ai/ha): 100; Nightshade plant response rating (nightshade; 31 g ai/ha): 0; Nightshade plant response rating (nightshade; 62 g ai/ha): 98; Plant response rating, Nightshade (nightshade; [6]): 90; Surinam Grass plant response rating (surinam grass; 16 g ai/ha): 0; Surinam Grass plant response rating (surinam grass; 31 g ai/ha): 0; Surinam Grass plant response rating (surinam grass; 62 g ai/ha): 20; Plant response rating, Surinam Grass (surinam grass; [6]): 50
3 | FC(F)(F)c1cnn(-c2ccccc2Oc2ncc(Br)cn2)c1 [Compound 18, 5-bromo-2-[2-[4-(trifluoromethyl)-1H-pyrazol-1-yl]phenoxy]pyrimidine] | 0 | 0 | 0 | 0 | 15 | 65 | 95 | 15% | 10% | 15% | 20% | 0 | 0 | 30 | 40 | 100 | 100 | 100 | 100 | 0 | Plant response rating, Beggarticks (hairy beggarticks; [3]): 0; Plant response rating, Beggarticks (hairy beggarticks; preemergence, 250 g ai/ha, scale 0 to 100, 0 no effect, 100 complete control): 0; Plant response rating, Foxtail, Giant (giant foxtail; [7]): 98; pest or weed control at 250 g/ha (blackgrass): 35%; Plant response rating, Field Bindweed (field bindweed; [7]): 40; Plant response rating, Waterhemp (waterhemp; [7]): 100; Nightshade plant response rating (nightshade; 31 g ai/ha): 95; Nightshade plant response rating (nightshade; 62 g ai/ha): 98; Plant response rating, Nightshade (nightshade; [6]): 100; Plant response rating, Nightshade (nightshade; [7]): 100; Surinam Grass plant response rating (surinam grass; 16 g ai/ha): 0; Surinam Grass plant response rating (surinam grass; 31 g ai/ha): 0; Surinam Grass plant response rating (surinam grass; 62 g ai/ha): 0; Plant response rating, Surinam Grass (surinam grass; [6]): 0; Plant response rating, Surinam Grass (surinam grass; [7]): 20
